US8658636B2, “TRPV4 antagonists” (GlaxoSmithKline, LLC, priority 2010, dated 2014)

Target: T1, human TRPV4 (Homo sapiens, UniProt Q9HBA0)
T1 construct: expressed in transfected cells; host or cells: HEK-293-MSR-II cells transduced with 1% BacMam virus
Assay: Ligand-gated assay (FLIPR calcium, Fluo4)
Type: cell-based
Details: HEK-293-MSR-II cells transduced with BacMam human TRPV4; inhibition of agonist (EC80)-induced activation; read-out: Human TRPV4 FLIPR pIC50 (converted)
Method: TRP channel activation/opening results in an influx of divalent and monovalent cations including calcium. The resulting changes in intracellular calcium are monitored using a calcium selective fluorescent dye Fluo4 (MDS Analytical Technologies). Dye loaded cells were initially exposed to test compound to verify a lack of agonist activity. Cells were subsequently activated by addition of an agonist and inhibition of the agonist-induced activation was recorded. Human embryonic kidney 293 cells stably expressing the macrophage scavenger receptor class II (HEK-293-MSR-II) and transduced with 1% BacMam (J. P. Condreay, S. M. Witherspoon, W. C. Clay and T. A. Kost, Proc Natl Acad Sci 96 (1999), pp. 127-132) virus expressing the human TRPV4 gene were plated at 15000 cells/well in a volume of 50 uL in a 384 well poly-D lysine coated plate. Cells were incubated for 24 hours at 37 degrees and 5% CO2. Media was then aspirated using a Tecan Plate-washer and replaced with 20 uL of dye loading buffer: HBSS, 500 uM Brilliant Black (MDS Analytical Technologies), 2 uM Fluo-4. Dye loaded plates were then incubated in the dark at room temperature for 1-1.5 hours. 10 uL of test compound diluted in HBSS+0.01% Chaps was added to the plate, incubated for 10 min at room temperature in the dark and then 10 uL of agonist was added at a final conc. equal to the agonist EC80. Calcium release was measured using the FLIPRtetra (MDS Analytical Technologies).

T1 sequence (Q9HBA0 whole entry): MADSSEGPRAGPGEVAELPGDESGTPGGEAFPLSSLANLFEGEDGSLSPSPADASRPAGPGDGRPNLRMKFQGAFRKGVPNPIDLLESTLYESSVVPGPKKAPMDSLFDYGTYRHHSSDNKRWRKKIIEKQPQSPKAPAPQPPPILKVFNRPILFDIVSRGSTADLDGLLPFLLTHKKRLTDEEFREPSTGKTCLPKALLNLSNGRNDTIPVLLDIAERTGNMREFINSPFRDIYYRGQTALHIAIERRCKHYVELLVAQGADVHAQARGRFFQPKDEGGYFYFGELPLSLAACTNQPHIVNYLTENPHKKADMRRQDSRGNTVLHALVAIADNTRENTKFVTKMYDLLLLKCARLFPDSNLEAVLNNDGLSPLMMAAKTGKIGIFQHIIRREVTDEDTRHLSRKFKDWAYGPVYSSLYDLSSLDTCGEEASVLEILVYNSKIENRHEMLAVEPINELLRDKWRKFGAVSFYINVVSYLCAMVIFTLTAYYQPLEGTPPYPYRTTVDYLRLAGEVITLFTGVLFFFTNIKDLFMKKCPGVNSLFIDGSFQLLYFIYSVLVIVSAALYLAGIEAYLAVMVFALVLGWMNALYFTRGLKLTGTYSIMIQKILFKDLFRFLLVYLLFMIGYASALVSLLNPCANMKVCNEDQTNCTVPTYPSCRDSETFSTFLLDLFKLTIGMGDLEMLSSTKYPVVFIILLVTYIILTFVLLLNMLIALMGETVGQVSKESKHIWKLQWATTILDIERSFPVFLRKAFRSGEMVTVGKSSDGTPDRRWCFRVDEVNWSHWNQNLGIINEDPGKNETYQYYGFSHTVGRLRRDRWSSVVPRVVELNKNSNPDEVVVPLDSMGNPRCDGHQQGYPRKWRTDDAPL

| SMILES | IC50 [nM] |
| --- | --- |
| CC1CN(Cc2c(-c3cccc(C(F)(F)F)c3)nc3ccc(S(=O)(=O)C(C)C)cc3c2C(=O)N[C@H](c2ccccc2)C(F)(F)F)CCC1N1CCOCC1 (mixture of isomers) [Example 38, 6-[(1-methylethyl)sulfonyl]-3-{[3-methyl-4-(4-morpholinyl)-1-piperidinyl]methyl}-2-[3-(trifluoromethyl)phenyl]-N-[(1R)-2,2,2-trifluoro-1-phenylethyl]-4-quinolinecarboxamide] | 10 |
| CS(=O)(=O)c1ccc2nc(-c3cccc(C(F)(F)F)c3)c(CN3CCC(N4CCCCC4)CC3)c(C(=O)N[C@H](c3ccccc3)C(F)(F)F)c2c1 [Example 1, 3-(1,4′-bipiperidin-1′-ylmethyl)-6-(methylsulfonyl)-2-[3-(trifluoromethyl)phenyl]-N-[(1R)-2,2,2-trifluoro-1-phenylethyl]-4-quinolinecarboxamide] | 3.16 |
| CCS(=O)(=O)c1cc2c(C(=O)N[C@H](c3ccccc3)C(F)(F)F)c(CN3CCC(N4CCCCC4)CC3)c(-c3cccc(C(F)(F)F)c3)nc2cc1OC [Example 3, 3-(1,4′-bipiperidin-1′-ylmethyl)-6-(ethylsulfonyl)-7-(methyloxy)-2-[3-(trifluoromethyl)phenyl]-N-[(1R)-2,2,2-trifluoro-1-phenylethyl]-4-quinolinecarboxamide] | 6.31 |
| CC(C)Oc1cc2nc(-c3cccc(C(F)(F)F)c3)c(CN3CCC(N4CCOCC4)CC3)c(C(=O)N[C@H](c3ccccc3)C(F)(F)F)c2cc1S(C)(=O)=O [Example 20, 7-[(1-methylethyl)oxy]-6-(methylsulfonyl)-3-{[4-(4-morpholinyl)-1-piperidinyl]methyl}-2-[3-(trifluoromethyl)phenyl]-N-[(1R)-2,2,2-trifluoro-1-phenylethyl]-4-quinolinecarboxamide] | 6.31 |
| COc1cc2nc(-c3cccc(C(F)(F)F)c3)c(CN3CCC(N4CCCCC4)CC3)c(C(=O)N[C@H](c3ccccc3)C(F)(F)F)c2cc1S(=O)(=O)C(C)C [Example 21, 3-(1,4′-bipiperidin-1′-ylmethyl)-6-[(1-methylethyl)sulfonyl]-7-(methyloxy)-2-[3-(trifluoromethyl)phenyl]-N-[(1R)-2,2,2-trifluoro-1-phenylethyl]-4-quinolinecarboxamide] | 3.98 |
| COc1cc2nc(-c3cccc(C(F)(F)F)c3)c(CN3CCC(N4CCOCC4)CC3)c(C(=O)N[C@H](c3ccccc3)C(F)(F)F)c2cc1S(=O)(=O)C(C)C [Example 22, 6-[(1-methylethyl)sulfonyl]-7-(methyloxy)-3-{[4-(4-morpholinyl)-1-piperidinyl]methyl}-2-[3-(trifluoromethyl)phenyl]-N-[(1R)-2,2,2-trifluoro-1-phenylethyl]-4-quinolinecarboxamide] | 6.31 |
| CCOc1cc2nc(-c3cccc(C(F)(F)F)c3)c(CN3CCC(N4CCOCC4)CC3)c(C(=O)N[C@H](c3ccccc3)C(F)(F)F)c2cc1S(=O)(=O)C(C)C [Example 23, 7-(ethyloxy)-6-[(1-methylethyl)sulfonyl]-3-{[4-(4-morpholinyl)-1-piperidinyl]methyl}-2-[3-(trifluoromethyl)phenyl]-N-[(1R)-2,2,2-trifluoro-1-phenylethyl]-4-quinolinecarboxamide] | 6.31 |
| CCOc1cc2nc(-c3cccc(C(F)(F)F)c3)c(CN3CCC(N4CCOCC4)CC3)c(C(=O)N[C@H](c3ccccc3)C(F)(F)F)c2cc1S(=O)(=O)CC [Example 26, 7-(ethyloxy)-6-(ethylsulfonyl)-3-{[4-(4-morpholinyl)-1-piperidinyl]methyl}-2-[3-(trifluoromethyl)phenyl]-N-[(1R)-2,2,2-trifluoro-1-phenylethyl]-4-quinolinecarboxamide] | 10 |
